Test results as given in patent US20140039044A1, “Hydroxylated Polymethoxyflavone Compositions” (WLLGEN, INC., priority 2006, published 2014).

Experiments:
Type in all cases: cell-based, mouse
COX-2 mRNA = assay: LPS-induced COX-2 mRNA expression by real-time PCR; conditions: RAW264.7 macrophages, 100 ng/mL LPS, 20 μM, relative to G3PDH, FIG. 6
Experimental: Bacterial lipopolysaccharide (LPS)-induced COX-2 expression was monitored in RAW264.7 macrophages, as previously described. Briefly, COX-2 expression was determined in untreated cells and cells treated with 100 ng/mL LPS either in the absence or the presence of 20 μM 5-hydroxy-3,6,7,8,3′,4′-hexamethoxyflavone. COX-2 mRNA levels were determined by real-time PCR where the values obtained were relative to expression of glyceraldehyde-3-phosphate dehydrogenase (G3PDH).

COX-2 = assay: Western blot of LPS-induced COX-2 protein expression; conditions: LPS-activated macrophages, 30 μM, 24 h, FIG. 4
Experimental: (§1) Proteins were isolated from cells after treatment with test compounds for 24 h. Total protein was extracted by adding 200 μL of gold lysis buffer (50 mM Tris-HCl, pH 7.4; 1 mM NaF; 150 mM NaCl; 1 mM EGTA; 1 mM phenylmethanesulfonyl fluoride; 1% NP-40; and 10 μg/mL leupeptin) to the cell pellets, which were kept on ice for 30 minutes, followed by centrifugation at 10,000×g for 30 min at 4° C. The protein concentrations of the cytosolic fraction (supernatant) were measured by BIO-RAD Protein Assay (Bio-Rad Laboratories, Munich, Germany). Samples containing 50 μg of protein were electrophoretically separated by SDS-PAGE and transferred to PVDF membrane (Millipore Corp., Bedford, Mass.) using standard procedures. See Burnette (1981) Anal. Biochem. 112:195-203. […]
(§2) Western blot analysis of inhibition of LPS-induced iNOS and COX-2 protein expression by PMFs was analyzed, following procedures described above. […] Equal amounts of total proteins (50 μg) were subjected to 10% SDS-PAGE, and expression of iNOS, COX-2 and β-actin protein was detected by Western blot using specific antibodies.

[1] = tested on: LPS-induced NFκB promoter activities in RAW264.7 macrophages; assay: NFκB-dependent luciferase reporter assay; conditions: FIG. 5
Experimental: RAW264.7 cells were seeded in […]. When the cells were confluent, the medium was replaced with serum-free Opti-MEM (Gibco-BRL). Then the cells were transfected with the p-NFκB-Luc plasmid reporter gene using LIPOFECTAMINE™ reagent (Invitrogen). After 6 h incubation, the medium was replaced with complete medium. After 24 h, the cells were trypsinized and equal numbers of cells were plated in 24 well tissue culture plates for 6 h. Cells were then treated with LPS (100 ng/ml) alone or with PMFs (10 or 30 μM) for 12 h. Each well was wash twice with cold PBS and harvested in 100 μl serum-free DMEM, and the luciferase activity was assayed by LUCILITE luciferase reporter gene assay kit (PerkinElamer). Luminescence was measured in a Luminescence counter (Molecular Devices, LMaxII) in single photon counting mode for 2 sec/well, following 5 min adaptation in the dark.
To confirm whether selected PMFs inhibited NFκB binding activity in LPS-induced macrophages, assessment of luciferase expression in cells transiently transfected with NFκB-dependent luciferase reporter plasmid was assessed according to the procedures described above in Section 8.4.

iNOS = assay: Western blot of LPS-induced iNOS protein expression; conditions: LPS-activated macrophages, 30 μM, 24 h, FIG. 4
Experimental: as §1, §2

COc1ccc(-c2oc3c(OC)c(OC)c(OC)c(O)c3c(=O)c2OC)cc1OC [Compound C, 5-hydroxy-3,6,7,8,3′,4′-hexamethoxyflavone]
Inhibition of LPS-induced COX-2 mRNA expression, in words (COX-2 mRNA): inhibits LPS-induced COX-2 mRNA expression

COc1c(OC)c(OC)c2c(=O)cc(-c3ccc(O)c(O)c3)oc2c1OC [H, 3′,4′-dihydroxy-5,6,7,8-tetramethoxyflavone]
Inhibition of COX-2 expression (Western blot), in words (COX-2): most potent inhibitor of COX-2 expression | Rank of inhibitory potency on LPS-induced NFκB transcriptional activity ([1]; RAW264.7, 30 μM): greatest inhibitory potency of PMFs tested | Inhibition of LPS-induced NFκB transcriptional activity, in words ([1]; RAW264.7, LPS 100 ng/ml, PMF 10 or 30 μM, 12 h): inhibited LPS-induced NFκB transcriptional activity in a concentration-dependent manner

COc1ccc(-c2cc(=O)c3c(O)c(OC)c(OC)c(OC)c3o2)cc1O [Compound K, 5,3′-dihydroxy-6,7,8,4′-tetramethoxyflavone]
Inhibition of iNOS expression (Western blot), in words (iNOS): most potent inhibitor of iNOS expression
